From patent publication US4864023A, “Pyrido(3,2,1-IJ)-1,3,4-benzoxadiazine derivatives” (priority 1988, dated 1989)
Values after ≈ are worked out from the molar mass of the structure shown. Like-named read-outs stand apart in the source and are kept apart here.

Tests used:
[1] = tested on: Klebsiella pneumoniae FDA PCI 602; assay: in vitro antibacterial activity, standard agar dilution method; format: cell-based; details: FDAPCI602, aerobic, read-out: minimum inhibitory concentration (MIC)
[2] = tested on: Pseudomonas stutzeri IFO 12695; assay: as above; format: cell-based; details: Stutzerimonas stutzeri, IFO12695, aerobic, read-out: minimum inhibitory concentration (MIC)
[3] = tested on: Bacillus subtilis PCI 219; assay: as above; format: cell-based; details: PCI219, aerobic, read-out: minimum inhibitory concentration (MIC)
[4] = acute toxicity by oral administration; details: mouse, in vivo; oral administration, ICR mice; read-out: LD50
From the text: The acute toxicity of these compounds was examined by oral administration in ICR mice.

[5] = tested on: Escherichia coli NR 2630; assay: in vitro antibacterial activity, standard agar dilution method; format: cell-based
[6] = tested on: Escherichia coli NIHJ JC-2; assay: as above; format: cell-based; details: NIHJJC2, aerobic, read-out: minimum inhibitory concentration (MIC)
[7] = tested on: Bordetella bronchiseptica ATCC 4617; assay: as above; format: cell-based; details: ATCC4617, aerobic, read-out: minimum inhibitory concentration (MIC)
[8] = tested on: Staphylococcus aureus FDA 209P JC-1; assay: as above; format: cell-based; details: FDA209P, read-out: minimum inhibitory concentration (MIC)
[9] = tested on: Alcaligenes faecalis IFO 13111; assay: as above; format: cell-based; details: IFO13111, aerobic, read-out: minimum inhibitory concentration (MIC)
[10] = tested on: Serratia marcescens IFO 12648; assay: as above; format: cell-based; details: IFO12648, aerobic, read-out: minimum inhibitory concentration (MIC)
[11] = tested on: Enterococcus faecalis NR 2943; assay: as above; format: cell-based; details: NR2943, aerobic, read-out: minimum inhibitory concentration (MIC)
[12] = tested on: Staphylococcus epidermidis NR 2942; assay: as above; format: cell-based; details: NR2942, aerobic, read-out: minimum inhibitory concentration (MIC)
[13] = tested on: Pseudomonas aeruginosa NR 2950; assay: as above; format: cell-based; details: NR2950, aerobic, read-out: minimum inhibitory concentration (MIC)
[14] = tested on: Pseudomonas aeruginosa A3; assay: as above; format: cell-based; details: aerobic, read-out: minimum inhibitory concentration (MIC)
[15] = tested on: Proteus rettgeri ATCC 14505; assay: as above; format: cell-based; details: Providencia rettgeri, ATCC14505, aerobic, read-out: minimum inhibitory concentration (MIC)
[16] = tested on: Enterobacter cloacae NR 2946; assay: as above; format: cell-based; details: NR2946, aerobic, read-out: minimum inhibitory concentration (MIC)
[17] = tested on: Salmonella typhimurium IFO 12529; assay: as above; format: cell-based; details: Salmonella enterica, aerobic, read-out: minimum inhibitory concentration (MIC)
[18] = tested on: Staphylococcus aureus Smith; assay: as above; format: cell-based; details: read-out: minimum inhibitory concentration (MIC)
[19] = tested on: Staphylococcus aureus NR 2855; assay: as above; format: cell-based; details: NR2855; Staphylococcus aureus NR 2855; aerobic; agar dilution; read-out: minimum inhibitory concentration (MIC)
[20] = tested on: Staphylococcus epidermidis IFO 12993; assay: as above; format: cell-based; details: IFO12993, aerobic, read-out: minimum inhibitory concentration (MIC)
[21] = tested on: Enterobacter aerogenes NR 2945; assay: as above; format: cell-based; details: Klebsiella aerogenes, NR2945, aerobic, read-out: minimum inhibitory concentration (MIC)
[22] = tested on: Proteus vulgaris OX19 ATCC 6898; assay: as above; format: cell-based; details: ATCC6898, aerobic, read-out: minimum inhibitory concentration (MIC)
[23] = tested on: Citrobacter freundii IFO 12681; assay: as above; format: cell-based; details: IFO12681, aerobic, read-out: minimum inhibitory concentration (MIC)
[24] = NR2630, Escherichia coli NR 2630, aerobic, agar dilution, read-out: minimum inhibitory concentration (MIC)
[25] = Staphylococcus aureus Smith, aerobic, agar dilution
[26] = Staphylococcus aureus FDA 209P JC-1, aerobic, agar dilution

SMILES | MIC [1] [µg/mL] | MIC [2] [µg/mL] | MIC [3] [µg/mL] | LD50 [4] [mg/kg] | MIC [6] [µg/mL] | MIC [7] [µg/mL] | MIC [9] [µg/mL] | MIC [10] [µg/mL] | MIC [11] [µg/mL] | MIC [12] [µg/mL] | MIC [13] [µg/mL] | MIC [14] [µg/mL] | MIC [15] [µg/mL] | MIC [16] [µg/mL] | MIC [17] [µg/mL] | MIC [19] [µg/mL] | MIC [20] [µg/mL] | MIC [21] [µg/mL] | MIC [22] [µg/mL] | MIC [23] [µg/mL] | further results
CN1COc2c(N3CCNCC3)c(F)cc3c(=O)c(C(=O)O)cn1c23 [Example 6, 9-fluoro-3-methyl-7-oxo-10-(1-piperazinyl)-2,3-dihydro-7H-pyrido[3,2,1-ij]-1,3,4-benzoxadiazine-6-carboxylic acid] | 0.1 (≈ 0.287 µM) | 0.025 (≈ 0.0718 µM) | 0.1 (≈ 0.287 µM) | > 2000 | 0.025 (≈ 0.0718 µM) | 6.25 (≈ 17.9 µM) | 3.13 (≈ 8.99 µM) | 0.1 (≈ 0.287 µM) | 12.5 (≈ 35.9 µM) | 1.56 (≈ 4.48 µM) | 0.78 (≈ 2.24 µM) | 0.1 (≈ 0.287 µM) | 0.1 (≈ 0.287 µM) | 0.025 (≈ 0.0718 µM) | 0.013 (≈ 0.0373 µM) | 3.13 (≈ 8.99 µM) | 1.56 (≈ 4.48 µM) | 0.013 (≈ 0.0373 µM) | 0.013 (≈ 0.0373 µM) | 0.013 (≈ 0.0373 µM) | MIC ([5]; Escherichia coli, NR2630, read-out: minimum inhibitory concentration (MIC)): 0.025 µg/mL (≈ 0.0718 µM); MIC ([8]; Staphylococcus aureus): 0.39 µg/mL (≈ 1.12 µM); MIC ([18]; Staphylococcus aureus): 0.39 µg/mL (≈ 1.12 µM)
CC1CN(c2c(F)cc3c(=O)c(C(=O)O)cn4c3c2OCN4C)CCN1 (stereo not drawn) [Example 7, 9-fluoro-3-methyl-10-(3-methyl-1-piperazinyl)-7-oxo-2,3-dihydro-7H-pyrido[3,2,1-ij]-1,3,4-benzoxadiazine-6-carboxylic acid] | 0.39 (≈ 1.08 µM) | 0.05 (≈ 0.138 µM) | 0.1 (≈ 0.276 µM) | > 2000 | 0.1 (≈ 0.276 µM) | 3.13 (≈ 8.64 µM) | 6.25 (≈ 17.2 µM) | 0.2 (≈ 0.552 µM) | 12.5 (≈ 34.5 µM) | 0.78 (≈ 2.15 µM) | 3.13 (≈ 8.64 µM) | 0.2 (≈ 0.552 µM) | 0.78 (≈ 2.15 µM) | 0.1 (≈ 0.276 µM) | 0.05 (≈ 0.138 µM) | 1.56 (≈ 4.31 µM) | 0.78 (≈ 2.15 µM) | 0.05 (≈ 0.138 µM) | 0.025 (≈ 0.069 µM) | 0.05 (≈ 0.138 µM) | MIC [5, 24]: 0.025 µg/mL (≈ 0.069 µM); MIC ([8]; Staphylococcus aureus): 0.39 µg/mL (≈ 1.08 µM); MIC [18, 25]: 0.2 µg/mL (≈ 0.552 µM)
CNCC1CCN(c2c(F)cc3c(=O)c(C(=O)O)cn4c3c2OCN4C)C1 (stereo not drawn) [Example 17, 9-fluoro-3-methyl-10-[3-[(methylamino)methyl]-1-pyrrolidinyl]-7-oxo-2,3-dihydro-7H-pyrido[3,2,1-ij]-1,3,4-benzoxadiazine-6-carboxylic acid] | 0.78 (≈ 2.07 µM) | 0.025 (≈ 0.0664 µM) | 0.013 (≈ 0.0345 µM) | > 2000 | 0.1 (≈ 0.266 µM) | 6.25 (≈ 16.6 µM) | 6.25 (≈ 16.6 µM) | 0.78 (≈ 2.07 µM) | 1.56 (≈ 4.14 µM) | 0.1 (≈ 0.266 µM) | 6.25 (≈ 16.6 µM) | 0.39 (≈ 1.04 µM) | 1.56 (≈ 4.14 µM) | 0.1 (≈ 0.266 µM) | 0.05 (≈ 0.133 µM) | 0.2 (≈ 0.531 µM) | 0.2 (≈ 0.531 µM) | 0.05 (≈ 0.133 µM) | 0.025 (≈ 0.0664 µM) | 0.2 (≈ 0.531 µM) | MIC [5, 24]: 0.025 µg/mL (≈ 0.0664 µM); MIC [8, 26]: 0.05 µg/mL (≈ 0.133 µM); MIC [18, 25]: 0.025 µg/mL (≈ 0.0664 µM)
CCNCC1CCN(c2c(F)cc3c(=O)c(C(=O)O)cn4c3c2OCN4C)C1 (stereo not drawn) [Example 18] | 0.39 (≈ 0.999 µM) | 0.025 (≈ 0.064 µM) | 0.013 (≈ 0.0333 µM) | > 2000 | 0.05 (≈ 0.128 µM) | 3.13 (≈ 8.02 µM) | 6.25 (≈ 16 µM) | 0.39 (≈ 0.999 µM) | 1.56 (≈ 4 µM) | 0.1 (≈ 0.256 µM) | 6.25 (≈ 16 µM) | 0.78 (≈ 2 µM) | 0.39 (≈ 0.999 µM) | 0.05 (≈ 0.128 µM) | 0.025 (≈ 0.064 µM) | 0.1 (≈ 0.256 µM) | 0.1 (≈ 0.256 µM) | 0.05 (≈ 0.128 µM) | 0.025 (≈ 0.064 µM) | 0.1 (≈ 0.256 µM) | MIC [5, 24]: 0.013 µg/mL (≈ 0.0333 µM); MIC [8, 26]: 0.05 µg/mL (≈ 0.128 µM); MIC [18, 25]: 0.025 µg/mL (≈ 0.064 µM)
CC1CN(c2c(F)cc3c(=O)c(C(=O)O)cn4c3c2OCN4C)CCN1C (stereo not drawn) [Example 36, 10-(3,4-dimethyl-1-piperazinyl)-9-fluoro-3-methyl-7-oxo-2,3-dihydro-7H-pyrido[3,2,1-ij]-1,3,4-benzoxadiazine-6-carboxylic acid] | 0.39 (≈ 1.04 µM) | 0.1 (≈ 0.266 µM) | 0.025 (≈ 0.0664 µM) | > 2000 | 0.1 (≈ 0.266 µM) | 0.39 (≈ 1.04 µM) | 3.13 (≈ 8.32 µM) | 0.39 (≈ 1.04 µM) | 3.13 (≈ 8.32 µM) | 0.2 (≈ 0.531 µM) | 6.25 (≈ 16.6 µM) | 0.78 (≈ 2.07 µM) | 0.78 (≈ 2.07 µM) | 0.1 (≈ 0.266 µM) | 0.1 (≈ 0.266 µM) | 0.1 (≈ 0.266 µM) | 0.2 (≈ 0.531 µM) | 0.05 (≈ 0.133 µM) | 0.025 (≈ 0.0664 µM) | 0.2 (≈ 0.531 µM) | MIC [5, 24]: 0.05 µg/mL (≈ 0.133 µM); MIC [8, 26]: 0.39 µg/mL (≈ 1.04 µM); MIC [18, 25]: 0.1 µg/mL (≈ 0.266 µM)
CN1COc2c(-n3ccnc3)c(F)cc3c(=O)c(C(=O)O)cn1c23 [Example 56, 9-fluoro-10-(1-imidazolyl)-3-methyl-7-oxo-2,3-dihydro-7H-pyrido[3,2,1-ij]-1,3,4-benzoxadiazine-6-carboxylic acid] | 0.39 (≈ 1.18 µM) | 0.0033 (≈ 0.00999 µM) | 0.2 (≈ 0.606 µM) | > 2000 | 0.1 (≈ 0.303 µM) | 3.13 (≈ 9.48 µM) | 3.13 (≈ 9.48 µM) | 0.78 (≈ 2.36 µM) | 12.5 (≈ 37.8 µM) | 0.39 (≈ 1.18 µM) | 6.25 (≈ 18.9 µM) | 3.13 (≈ 9.48 µM) | 1.56 (≈ 4.72 µM) | 0.05 (≈ 0.151 µM) | 0.05 (≈ 0.151 µM) | 0.78 (≈ 2.36 µM) | 0.39 (≈ 1.18 µM) | 0.1 (≈ 0.303 µM) | 0.013 (≈ 0.0394 µM) | 0.1 (≈ 0.303 µM) | MIC [5, 24]: 0.0065 µg/mL (≈ 0.0197 µM); MIC ([8]; Staphylococcus aureus): 0.39 µg/mL (≈ 1.18 µM); MIC ([18]; Staphylococcus aureus): 0.39 µg/mL (≈ 1.18 µM)
